In one experiment the target is IRAK4 kinase (Homo sapiens (Human), UniProt Q9NWZ3). Briefly: IRAK4 kinase activity test (KinEASE-STK S1 HTRF kit). Format: biochemical. To be noted: 2.5 nM IRAK4 kinase, 7 μM ATP, 37° C. 120 min. As to the method: Then 2.5 nM 1RAK4 kinase (Carna), 1 μM biotinylated polypeptide substrate (Cisbio) and 7 μM adenosine triphosphate (Sigma-Aldrich) were sequentially added, and the mixtures were incubated at 37° C. for 120 min. Subsequently, an anti-phosphoserine/threonine antibody (Cisbio) conjugated with a europium element compound and conjugated modified XL665 streptavidin (Cisbio) were added to the reaction systems to stop the reactions. After 1 h of incubation at room temperature, the fluorescence intensity of each well was measured at the excitation wavelength of 337 nm and the emission wavelengths of 620 nm and 665 nm with a microplate reader EnVision (PerkinElmer) in the HTRF mode, and Ratio values were calculated using the formula Ratio=(665 nm/620 nm)×[…]. The inhibition rate of the compound at each concentration was calculated by comparing the fluorescence intensity ratio with that of the control group. Then a non-linear curve fitting of logarithmic concentration-inhibition rate was performed using GraphPad Prism 7, and the IC50 value of the compound was obtained.

The target of experiment [1] is IRAK4 protein in THP-1 cells (Homo sapiens (Human), UniProt Q9NWZ3). Briefly: Degradation of IRAK4 in THP-1 cells, human IRAK4 AlphaLISA assay. Format: cell-based. Particulars: 24 h incubation. In outline: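 THP-1 cells, after overnight plating, exposed 24 h at 37 °C to compound at 0.03-3000 nM final. Lysate IRAK4 read by Western blot and by AlphaLISA (acceptor beads 10 μg/mL, biotin anti-IRAK4 1 nM, donor beads 40 μg/mL, 23 °C). DC50 and Dmax from log concentration-response fit.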

Usually IC50 stands for the concentration that inhibits the measured activity by half. Read a high IC50 as weaker potency in that assay. One may read the DC50 as the midpoint of the concentration-degradation curve. One may read the Dmax as the largest share of the target that was removed. The low end stands for a partial loss of target, the high end for a fuller loss of target.

The structures appear in SMILES notation.

Sequence of IRAK4 protein in THP-1 cells (Q9NWZ3 whole entry): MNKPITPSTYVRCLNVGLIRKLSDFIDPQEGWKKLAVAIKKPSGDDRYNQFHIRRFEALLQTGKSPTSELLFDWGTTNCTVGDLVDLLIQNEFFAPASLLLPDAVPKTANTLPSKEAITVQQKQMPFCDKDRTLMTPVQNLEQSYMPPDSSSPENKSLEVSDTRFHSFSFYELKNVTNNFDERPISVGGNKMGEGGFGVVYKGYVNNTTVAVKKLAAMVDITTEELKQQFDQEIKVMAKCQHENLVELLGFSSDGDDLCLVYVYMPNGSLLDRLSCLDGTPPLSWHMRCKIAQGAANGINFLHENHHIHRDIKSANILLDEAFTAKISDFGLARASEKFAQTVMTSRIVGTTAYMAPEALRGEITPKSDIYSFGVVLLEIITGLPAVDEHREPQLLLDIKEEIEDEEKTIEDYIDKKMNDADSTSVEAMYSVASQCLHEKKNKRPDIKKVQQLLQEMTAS
Sequence of IRAK4 kinase (Q9NWZ3 whole entry): as above

`O=C1CCN(c2cc(C(=O)N3CCC(CCN4CCC(n5cc(NC(=O)c6cnn7ccc(N8CCOCC8)nc67)c(C(F)F)n5)CC4)CC3)ccc2F)C(=O)N1` [Example 37, N-(3-(difluoromethyl)-1-(1-(2-(1-(3-(2,4-dioxotetrahydropyrimidin-1(2H)-yl)-4-fluorobenzoyl)piperidin-4-yl)ethyl)piperidin-4-yl)-1H-pyrazol-4-yl)-5-morpholinopyrazolo[1,5-a]pyrimidine-3-carboxamide]: half-maximal inhibition at IRAK4 kinase (IC50) required 13.1 nM. In experiment [1], the DC50 is 42 nM and the Dmax came to 81.1%.
Take `O=C1CCN(c2cc(C(=O)N3CCN(CCCCN4CCC(n5cc(NC(=O)c6cnn7ccc(N8C[C@H]9C[C@@H]8CO9)nc67)c(C(F)F)n5)CC4)CC3)ccc2Cl)C(=O)N1` [Example 40, 5-((1R,4R)-2-oxa-5-azabicyclo[2.2.1]heptan-5-yl)-N-(1-(1-(4-(4-(4-chloro-3-(2,4-dioxotetrahydropyrimidin-1(2H)-yl)benzoyl)piperazin-1-yl)-n-butyl)piperidin-4-yl)-3-(difluoromethyl)-1H-pyrazol-4-yl)pyrazolo[1,5-a]pyrimidine-3-carboxamide]: half-maximal inhibition against IRAK4 kinase (IC50) was put at 34.5 nM. In experiment [1], the 50% degradation concentration (DC50) amounted to 32.8 nM and the maximal degradation (Dmax) turned out to be 79.2%.
The compound `O=C1CCN(c2cc(C(=O)N3CCC4(CCC(CCN5CCC(n6cc(NC(=O)c7cnn8ccc(N9CCOCC9)nc78)c(C(F)F)n6)CC5)CC4)CC3)ccc2Cl)C(=O)N1` [Example 42, N-(1-(1-(2-(3-(4-chloro-3-(2,4-dioxotetrahydropyrimidin-1(2H)-yl)benzoyl)-3-azaspiro[5.5]undecan-9-yl)ethyl)piperidin-4-yl)-3-(difluoromethyl)-1H-pyrazol-4-yl)-5-morpholinopyrazolo[1,5-a]pyrimidine-3-carboxamide] returned an IC50 against IRAK4 kinase of 18.6 nM. In experiment [1], this compound showed a DC50 of 3.66 nM and a Dmax of 91.7%.
For `O=C1CCN(c2cc(C(=O)N3CCC4(CCC(CCN5CCC(n6cc(NC(=O)c7cnn8ccc(N9C[C@H]%10C[C@@H]9CO%10)nc78)c(C(F)F)n6)CC5)CC4)CC3)ccc2Cl)C(=O)N1` [Example 43, 5-((1R,4R)-2-oxa-5-azabicyclo[2.2.1]heptan-5-yl)-N-(1-(1-(2-(3-(4-chloro-3-(2,4-dioxotetrahydropyrimidin-1(2H)-yl)benzoyl)-3-azaspiro[5.5]undecan-9-yl)ethyl)piperidin-4-yl)-3-(difluoromethyl)-1H-pyrazol-4-yl)pyrazolo[1,5-a]pyrimidine-3-carboxamide], in that order: 45 nM, 15.1 nM and 79.5%.
For `Cc1ccc(C(=O)N2CCC3(CCC(CN4CCC(n5cc(NC(=O)c6cnn7ccc(N8C[C@H]9C[C@@H]8CO9)nc67)c(C(F)F)n5)CC4)CC3)CC2)cc1N1CCC(=O)NC1=O` [Example 44, 5-((1R,4R)-2-oxa-5-azabicyclo[2.2.1]heptan-5-yl)-N-(3-(difluoromethyl)-1-(1-((3-(3-(2,4-dioxotetrahydropyrimidin-1(2H)-yl)-4-methylbenzoyl)-3-azaspiro[5.5]undecan-9-yl)methyl)piperidin-4-yl)-1H-pyrazol-4-yl)pyrazolo[1,5-a]pyrimidine-3-carboxamide], at IRAK4 kinase, the 50% inhibitory concentration (IC50) came out at 13.4 nM. In experiment [1], this compound came in with a half-maximal degradation concentration (DC50) of 6.3 nM and a Dmax of 80.5%.
Consider `Cc1ccc(C(=O)N2CCC3(CCC(CN4CCC(n5cc(NC(=O)c6cnn7ccc(N8CCC[C@H](N)C8)nc67)c(C(F)F)n5)CC4)CC3)CC2)cc1N1CCC(=O)NC1=O` [Example 49, (S)-5-(3-aminopiperidin-1-yl)-N-(3-(difluoromethyl)-1-(1-((3-(3-(2,4-dioxotetrahydropyrimidin-1(2H)-yl)-4-methylbenzoyl)-3-azaspiro[5.5]undecan-9-yl)methyl)piperidin-4-yl)-1H-pyrazol-4-yl)pyrazolo[1,5-a]pyrimidine-3-carboxamide], for which the IC50 at IRAK4 kinase came to 7.05 nM. In experiment [1], this compound yielded a DC50 of 3.22 nM and a Dmax of 97.1%.
`Cc1ccc(C(=O)N2CCC3(CCC(CN4CCC(n5cc(NC(=O)c6cnn7ccc(N8CC9(COC9)C8)nc67)c(C(F)F)n5)CC4)CC3)CC2)cc1N1CCC(=O)NC1=O` [Example 50, N-(3-(difluoromethyl)-1-(1-((3-(3-(2,4-dioxotetrahydropyrimidin-1(2H)-yl)-4-methylbenzoyl)-3-azaspiro[5.5]undecan-9-yl)methyl)piperidin-4-yl)-1H-pyrazol-4-yl)-5-(2-oxa-6-azaspiro[3.3]heptan-6-yl)pyrazolo[1,5-a]pyrimidine-3-carboxamide] had a 50% inhibitory concentration (IC50) against IRAK4 kinase of 36.7 nM. In experiment [1], this compound displayed a half-maximal degradation concentration (DC50) of 5.94 nM and a Dmax of 82.1%.
`O=C1CCN(c2cc(C(=O)N3CCC4(CCC(CN5CCC(n6cc(NC(=O)c7cnn8ccc(N9CCOCC9)nc78)c(C(F)F)n6)CC5)CC4)CC3)ccc2OC(F)(F)F)C(=O)N1` [Example 52, N-(3-(difluoromethyl)-1-(1-((3-(3-(2,4-dioxotetrahydropyrimidin-1(2H)-yl)-4-(trifluoromethoxy)benzoyl)-3-azaspiro[5.5]undecan-9-yl)methyl)piperidin-4-yl)-1H-pyrazol-4-yl)-5-morpholinopyrazolo[1,5-a]pyrimidine-3-carboxamide] came in with a 50% inhibitory concentration (IC50) against IRAK4 kinase of 23.8 nM. For the same compound, in experiment [1], it took 18.4 nM to reach half-maximal degradation (DC50) and the greatest degradation seen (Dmax) was 95.4%.
Consider `Cc1ccc(C(=O)N2CCC3(CCC(CN4CCC(n5cc(NC(=O)c6cnn7ccc(N8CCS(=O)(=O)CC8)nc67)c(C(F)F)n5)CC4)CC3)CC2)cc1N1CCC(=O)NC1=O` [Example 55, N-(3-(difluoromethyl)-1-(1-((3-(3-(2,4-dioxotetrahydropyrimidin-1(2H)-yl)-4-methylbenzoyl)-3-azaspiro[5.5]undecan-9-yl)methyl)piperidin-4-yl)-1H-pyrazol-4-yl)-5-(1,1-dioxothiomorpholinyl)pyrazolo[1,5-a]pyrimidine-3-carboxamide], for which half-maximal inhibition at IRAK4 kinase (IC50) was put at 21.3 nM. In experiment [1], this compound registered a half-maximal degradation concentration (DC50) of 7.52 nM and a maximal degradation (Dmax) of 79.2%.
Compound `Cc1ccc(C(=O)N2CCC3(CCC(CN4CCC(n5cc(NC(=O)c6cnn7ccc(N8CCC[C@H](O)C8)nc67)c(C(F)F)n5)CC4)CC3)CC2)cc1N1CCC(=O)NC1=O` [Example 56, (S)-N-(3-(difluoromethyl)-1-(1-((3-(3-(2,4-dioxotetrahydropyrimidin-1(2H)-yl)-4-methylbenzoyl)-3-azaspiro[5.5]undecan-9-yl)methyl)piperidin-4-yl)-1H-pyrazol-4-yl)-5-(3-hydroxypiperidin-1-yl)pyrazolo[1,5-a]pyrimidine-3-carboxamide] yielded an IC50 against IRAK4 kinase of 3.87 nM. In experiment [1], this compound registered a DC50 of 0.41 nM and a Dmax of 96.4%.
The compound `O=C1CCN(c2cc(C(=O)N3CCC4(CCC(CN5CCC(n6cc(NC(=O)c7cnn8ccc(N9CCC[C@H](O)C9)nc78)c(C(F)F)n6)CC5)CC4)CC3)ccc2Cl)C(=O)N1` [Example 57, (S)-N-(1-(1-((3-(4-chloro-3-(2,4-dioxotetrahydropyrimidin-1(2H)-yl)benzoyl)-3-azaspiro[5.5]undecan-9-yl)methyl)piperidin-4-yl)-3-(difluoromethyl)-1H-pyrazol-4-yl)-5-(3-hydroxypiperidin-1-yl)pyrazolo[1,5-a]pyrimidine-3-carboxamide] displayed a half-inhibitory concentration (IC50) at IRAK4 kinase of 4.57 nM. In addition, in experiment [1], the half-maximal degradation concentration (DC50) worked out at 0.58 nM and the Dmax came out at 96.6%.
On to `COc1ccc(C(=O)N2CCC3(CCN(CCCN4CCC(n5cc(NC(=O)c6cnn7ccc(N8CCOCC8)nc67)c(C(F)F)n5)CC4)CC3)CC2)cc1N1CCC(=O)NC1=O` [Example 60, N-(3-(difluoromethyl)-1-(1-(3-(9-(3-(2,4-dioxotetrahydropyrimidin-1(2H)-yl)-4-methoxybenzoyl)-3,9-diazaspiro[5.5]undecan-3-yl)propyl)piperidin-4-yl)-1H-pyrazol-4-yl)-5-morpholinopyrazolo[1,5-a]pyrimidine-3-carboxamide], for which, on IRAK4 kinase, inhibition was half-maximal at 21.9 nM (IC50). In addition, in experiment [1], the DC50 is 9.36 nM and the Dmax turned out to be 96.6%.
On the same counts, the results for `COc1ccc(C(=O)N2CCC3(CCN(CCCCN4CCC(n5cc(NC(=O)c6cnn7ccc(N8CCOCC8)nc67)c(C(F)F)n5)CC4)CC3)CC2)cc1N1CCC(=O)NC1=O` [Example 61, N-(3-(difluoromethyl)-1-(1-(4-(9-(3-(2,4-dioxotetrahydropyrimidin-1(2H)-yl)-4-methoxybenzoyl)-3,9-diazaspiro[5.5]undecan-3-yl)butyl)piperidin-4-yl)-1H-pyrazol-4-yl)-5-morpholinopyrazolo[1,5-a]pyrimidine-3-carboxamide] are 9.06 nM, 29 nM and 87.9%.
On the same counts, the results for `O=C1CCN(c2cc(C(=O)N3CCC4(CCC(CN5CCC(n6cc(NC(=O)c7cnn8ccc(N9CCS(=O)(=O)CC9)nc78)c(C(F)F)n6)CC5)CC4)CC3)ccc2Cl)C(=O)N1` [Example 63, N-(1-(1-((3-(4-chloro-3-(2,4-dioxotetrahydropyrimidin-1(2H)-yl)benzoyl)-3-azaspiro[5.5]undecan-9-yl)methyl)piperidin-4-yl)-3-(difluoromethyl)-1H-pyrazol-4-yl)-5-(1,1-dioxothiomorpholinyl)pyrazolo[1,5-a]pyrimidine-3-carboxamide] are 36.2 nM, 9.18 nM and 79.3%.

Source of the values: US20240368194A1, “IRAK4 DEGRADATION AGENT, AND PREPARATION METHOD THEREFOR AND USE THEREOF” (SHANGHAI LEADINGTAC PHARMACEUTICAL CO. LTD., priority 2021, published 2024).
